Consider three compounds from patent US20150297615A1, “ANDROGEN RECEPTOR INACTIVATION CONTRIBUTES TO ANTITUMOR EFFICACY OF CYP17 INHIBITORS IN PROSTATE CANCER” (UNIVERSITY OF MARYLAND, BALTIMORE, priority 2008, published 2015).

Molecules are shown by their SMILES. Where a chain is given by its changes, count along the chain named. Read-outs that look alike come from different tables or passages of the source.

Experiment [1] relates to LAPC4 cells. Put plainly: Cell proliferation assay (MTT), LAPC4 cells. Particulars: Homo sapiens, LAPC4, 168 h.
Protocol: (§3) To determine the effect of steroids and novel compounds on cell proliferation, each cell type was transferred into steroid-free medium three days prior to the start of the experiments (steroid-free medium consisted of phenol red free RPMI supplemented with 5% dextran-coated, charcoal treated serum and 1% penicillin/streptomycin solution). Growth studies were then performed by plating cells (1.5×10^4cells/well) in 24-well multiwell dishes (Corning, Inc. Corning, N.Y.). After a 24 hour attachment period, the medium was aspirated and replaced with steroid-free medium containing vehicle or the indicated concentrations of androgens and novel compounds (1 nM-10 μM). Control wells were treated with vehicle (ethanol). […] The medium was changed every three days and the numbers of viable cells were compared by MTT or XTT (LNCaP) assay on the seventh day.
(§4) For the MTT procedure, following incubation of cells for the above mentioned time, 0.5 mg/ml MTT was added to each well and incubated at 37° C. for three hours. Following incubation, the medium was aspirated completely, with care taken not to disturb the formazan crystals. DMSO (500 μl) was used to solubilize these crystals. After slight shaking, the plates were read at 540 nm with a Victor 1420 scanning multi-well spectrophotometer. All results represent the average of a minimum of three wells. Additional control consisted of medium alone with no cells. XTT was performed essentially as MTT, with the deletion of the solubilization step and was preferred for the LNCaP cells that adhere poorly to the plates.
(§5) LNCaP cells were seeded at 15,000 cells/well in 24 well multi-well plates, and LAPC4 cells were seeded at 15,000 cells/well. […] The number of viable cells was compared by MTT assay (LAPC4) or XTT assay (LNCaP) on the 7th day.
Experiment [2] relates to LNCaP cells. Put plainly: Cell proliferation assay (XTT), LNCaP cells. Particulars: Homo sapiens, 168 h. A general note: Formazan colour is commonly taken as a measure of viable cells.
Protocol: as §3, §4, §5
The target in experiment [3] is T1, T877A AR (Homo sapiens, UniProt P10275, T878A).
T1 construct: endogenous in cells; host or cells: LNCaP cells
T1 sequence (P10275 1-920 T878A): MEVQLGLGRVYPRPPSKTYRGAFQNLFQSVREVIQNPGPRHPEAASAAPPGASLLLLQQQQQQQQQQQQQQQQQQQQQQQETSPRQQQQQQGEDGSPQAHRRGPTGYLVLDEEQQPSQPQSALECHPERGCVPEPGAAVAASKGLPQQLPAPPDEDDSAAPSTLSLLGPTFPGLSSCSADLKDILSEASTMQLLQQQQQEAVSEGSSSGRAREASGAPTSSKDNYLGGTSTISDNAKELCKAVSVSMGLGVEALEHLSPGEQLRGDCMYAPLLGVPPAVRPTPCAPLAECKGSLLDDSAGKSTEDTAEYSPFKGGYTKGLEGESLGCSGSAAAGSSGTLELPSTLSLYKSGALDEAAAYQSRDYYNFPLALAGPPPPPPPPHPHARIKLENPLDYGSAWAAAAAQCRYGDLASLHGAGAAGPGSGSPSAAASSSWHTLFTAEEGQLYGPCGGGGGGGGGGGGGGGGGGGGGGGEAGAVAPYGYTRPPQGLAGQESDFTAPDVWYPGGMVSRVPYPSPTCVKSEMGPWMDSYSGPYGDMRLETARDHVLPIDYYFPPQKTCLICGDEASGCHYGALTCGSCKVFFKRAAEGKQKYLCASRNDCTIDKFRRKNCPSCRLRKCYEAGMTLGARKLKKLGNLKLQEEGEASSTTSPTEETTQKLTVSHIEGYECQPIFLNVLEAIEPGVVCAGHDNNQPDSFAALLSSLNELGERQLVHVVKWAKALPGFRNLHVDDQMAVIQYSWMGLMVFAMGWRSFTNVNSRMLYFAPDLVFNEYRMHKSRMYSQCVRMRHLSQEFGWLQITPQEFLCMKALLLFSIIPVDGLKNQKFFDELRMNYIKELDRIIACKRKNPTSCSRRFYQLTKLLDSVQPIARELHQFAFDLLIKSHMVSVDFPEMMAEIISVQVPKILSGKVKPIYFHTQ
The experiment in a line: Competitive inhibition of [3H]R1881 binding, T877A AR (LNCaP cells). Particulars: read-out: T877A (LNCaP), inhibition of [3H]R1881 binding as symbol. The procedure:
(§1) In order to determine if the CYP17 inhibitors interact with the AR, competitive binding assays were performed as described previously. The ability of the test compounds (1 nM-10 μM) to displace [^3H]R1881 (5.0 nM) from the AR was determined in LAPC4 cells (wild-type AR), PC3 cells transfected with wild-type AR (PC3-AR), LNCaP cells which express an endogenous AR with a mutation in the ligand binding domain (T877A), and PC3 cells transfected with an AR containing a mutation in the DNA binding domain (T575A).
(§2) The ability of the test compounds to displace [^3H]R1881 (5.0 nM) from the androgen receptor was determined in LAPC4 cells (wild-type AR), PC3 cells transfected with wild-type AR, LNCaP cells which express an endogenous AR with a mutation in the ligand binding domain (T877A), and PC3 cells transfected with an AR containing a mutation in the DNA binding domain (T575A). Cells were plated (2-3×10^5) in 24 well multiwell dishes in steroid-free medium and allowed to attach. The following day the medium was replaced with serum-free, steroid free RPMI supplemented with 0.1% BSA and containing [^3H]R1881 (5 nM), test compounds (1 nM-10 μM), and 1 μM triamcinolone acetonide to saturate progesterone and glucocorticoid receptors. Following a 2 hour incubation period at 37° C., cells were washed twice with ice-cold DPBS and solubilized in DPBS containing 0.5% SDS and 20% glycerol.

Experiment [4] has as its target T2, wild-type AR (Homo sapiens, UniProt P10275).
T2 construct: the wild-type AR expressed endogenously in LAPC4 cells; endogenous in cells; host or cells: LAPC4 cells (endogenous) and PC3-AR cells (PC-3 stably transfected with human wild-type AR)
T2 sequence (P10275 1-920): T1 sequence (P10275 1-920 T878A) with A878T
The experiment in a line: Competitive inhibition of [3H]R1881 binding, wild-type AR (LAPC4/PC3-AR cells). Particulars: read-out: wild-type (LAPC4/PC3-AR), inhibition of [3H]R1881 binding as symbol. The protocol: as §1, §2

[5] abbreviates: read-out: LAPC4 IC50 (μM), DHT +.
The mark [6] stands for this setting: read-out: LAPC4 IC50 (μM), DHT −.
The mark [7] stands for this setting: read-out: LNCaP IC50 (μM), DHT +.
[8] abbreviates: read-out: LNCaP IC50 (μM), DHT −.

`C[C@]12CC[C@H](O)CC1=CC[C@@H]1[C@@H]2CC[C@]2(C)C(n3cnc4ccccc43)=CC[C@@H]12` [VN/124-1, 3β-hydroxy-17-(1H-benzimidazole-1-yl)androsta-5,16-diene]: the IC50 is 3.2 µM in experiment [1] (setting [5]), 4 µM in experiment [1] (setting [6]), 6 µM in experiment [2] (setting [7]) and 2.6 µM in experiment [2] (setting [8]).
The like results for `CC(O)(CS(=O)(=O)c1ccc(F)cc1)C(=O)Nc1ccc(C#N)c(C(F)(F)F)c1` (stereo not shown) [Casodex, Bicalutamide] were, in that order, 10 µM, 9 µM, 8.6 µM and 4.6 µM.
On to `C[C@]12CC[C@H](O)CC1=CC[C@@H]1[C@@H]2CC[C@]2(C)C(c3cccnc3)=CC[C@@H]12` [Abiraterone], for which the inhibition at 10 µM in experiment [3] and in experiment [4] was under 20% in each case.

As usually defined, the IC50 is the concentration that inhibits the measured activity by half.
